Results on one molecule are retold here after patent US6670350B1, “Method of administering dienogest in high dosages to reduce the body of the breast and pharmaceutical composition for same” (JenaPharm GmbH & Co. KG, priority 1999, dated 2003).

The subject of one test is body of the breast. The experiment in a line: clinical study, sonographic examination of the breast. Format: in vivo, patients (women). The method, then: In a clinical study, the reduction of the body of the breast was detected sonographically in 21 patients ranging in age from 18 to 52 years. In each case, 10 mg of dienogest were administered orally as a tablet over a period of 24 weeks at intervals of 12 hours. The daily dose therefore amounted to 20 mg of dienogest. The breast was examined sonographically before the treatment as well as after 12 and 24 weeks of continuous therapy.

Test [1] can be described thus: blood fat values on administration of high dosages of dienogest. Format: in vivo.

On to `C[C@]12CCC3=C4CCC(=O)C=C4CC[C@H]3[C@@H]1CC[C@@]2(O)CC#N` [dienogest, 17-hydroxy-3-oxo-19-nor-17α-pregna-4,9-diene-21-nitrile], for which, in the test on body of the breast (21 patients aged 18 to 52 years, 10 mg orally as tablet every 12 hours (20 mg daily) over 24 weeks, on the average, in all women), the “body of the breast (detected sonographically)” value is “decreased significantly”. Also, the “symptoms of mastopathic changes, such as duct ectasia” value in the test with body of the breast (21 patients, 10 mg orally every 12 hours (20 mg daily) over 24 weeks) was “receded completely”. The HDL cholesterol level entry in test [1] was “increased”.
